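Tested at 5 concentrations; 48 h exposure; 96-well plates; endpoints linearly interpolated, else capped at highest concentration. GI50 is the concentration that inhibits growth by half. At the TGI there is no net growth.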
What was measured:
Test in all cases: NCI-60 cell line screen, 48 h
[1] = test system: M14 melanoma
[2] = test system: SK-OV-3 ovarian
[3] = test system: BT-549 breast
[4] = test system: SF-268 CNS
[5] = test system: SF-295 CNS
[6] = test system: SN12C renal
[7] = test system: SNB-75 CNS
[8] = test system: ACHN renal
[9] = test system: HS 578T breast
[10] = test system: 786-0 renal

Row | SMILES | TGI [1] | TGI [2] | TGI [3] | TGI [4] | TGI [5] | TGI [6] | TGI [7] | TGI [8] | TGI [9] | TGI [10] | GI50 [1] | GI50 [2] | GI50 [3] | GI50 [4] | GI50 [5] | GI50 [6] | GI50 [7] | GI50 [8] | GI50 [9]
1 | CC(C)(O)CO/N=C1\C(c2c(O)[nH]c3ccccc23)=Nc2ccccc21 | > 43.3 µM | 2.05 µM | 28.6 µM | > 60 µM | 18.4 µM | > 80.1 µM | 9.72 µM | 8.01 µM | > 100 µM | > 44.4 µM | – | – | – | – | – | – | – | – | –
2 | C/C=C1/CN2CCC34c5ccccc5N(C)C23C2CC1C4(C(=O)OC)C(O)O2 (stereo not drawn) | > 100 µM | > 100 µM | > 100 µM | > 100 µM | > 100 µM | > 100 µM | > 100 µM | > 100 µM | > 100 µM | > 100 µM | – | – | – | – | – | – | – | – | –
3 | CNS(=O)(=O)c1ccc2[nH]c(O)c(C3=Nc4ccccc4C3=O)c2c1 | > 100 µM | > 100 µM | > 100 µM | > 100 µM | > 100 µM | > 100 µM | > 100 µM | > 100 µM | > 100 µM | – | – | – | – | – | – | – | – | – | –
4 | Cc1ccc([N+](=O)[O-])cc1S(=O)(=O)Nc1ccc(C2=NN(C(=O)c3ccccc3)C(c3cccs3)C2)cc1 (stereo not drawn) | > 100 µM | 82.5 µM | > 100 µM | > 100 µM | > 100 µM | 66.3 µM | 67 µM | > 100 µM | > 100 µM | 45.2 µM | – | – | – | – | – | – | – | – | –
5 | N#CCCOCN(CO)c1nc(N(CO)COCCC#N)nc(N(CO)COCCC#N)n1 | 45.1 µM | > 100 µM | – | 45.1 µM | 43.7 µM | 44.2 µM | – | 76.1 µM | – | – | – | – | – | – | – | – | – | – | –
6 | NC(=O)Nc1ccc(C(=O)NCCCNC(=O)c2ccc(NC(N)=O)cc2)cc1 | > 100 µM | – | > 100 µM | > 100 µM | – | – | > 100 µM | > 100 µM | > 100 µM | – | – | – | – | – | – | – | – | – | –
7 | CCCC1=C(C(=O)OCC)C(c2ccccc2OC)C(C#N)=C(N)O1 (stereo not drawn) | > 100 µM | > 100 µM | > 100 µM | > 100 µM | > 100 µM | 41.4 µM | > 100 µM | > 100 µM | > 100 µM | – | 34.2 µM | > 100 µM | 62.9 µM | 37.8 µM | 84 µM | 16.6 µM | 32.2 µM | 48.1 µM | > 100 µM
8 | Cc1c(NC(=O)c2cc([N+](=O)[O-])cc([N+](=O)[O-])c2)c(=O)n(-c2ccccc2)n1C | > 100 µM | > 100 µM | > 100 µM | > 100 µM | – | > 100 µM | – | – | > 100 µM | > 100 µM | – | – | – | – | – | – | – | – | –
9 | C[C@H](N[C@H]1CCC[C@]1(O)C#Cc1ccc2c(c1)OCO2)c1ccccc1 | > 25 µM | > 25 µM | – | > 25 µM | > 25 µM | – | > 25 µM | > 25 µM | > 25 µM | – | – | – | – | – | – | – | – | – | –
10 | O=C(NCCNc1nccc(-c2c(-c3cccc(O)c3)nc3sccn23)n1)Nc1cccc(C(F)(F)F)c1 | 3.39 µM | – | – | 14.6 µM | 29.7 µM | 20 µM | 12.7 µM | 45.7 µM | 17.8 µM | – | 1.79 µM | – | – | 3.45 µM | 4.16 µM | 3.42 µM | 2.5 µM | 5.79 µM | 3.56 µM
11 | COc1cc2c(cc1OC)C1Cc3cc(OC)c(OC)cc3C(C2)O1 | > 100 µM | > 100 µM | > 100 µM | > 100 µM | > 100 µM | > 100 µM | > 100 µM | > 100 µM | – | – | – | – | – | – | – | – | – | – | –
12 | COc1ccccc1/C=C/c1c(N)ncnc1Nc1cccc(Cl)c1 | 51.8 µM | – | 35.7 µM | 38.8 µM | 65 µM | 30.9 µM | 23.6 µM | 26 µM | 44 µM | 26.6 µM | – | – | – | – | – | – | – | – | –
13 | N#Cc1c(-c2cccc(Cl)c2)cc(-c2ccc(Cl)cc2)nc1N | 36.9 µM | 46.7 µM | 36.4 µM | 37.7 µM | 32.5 µM | 34.4 µM | – | 41.6 µM | 40.5 µM | 33.5 µM | – | – | – | – | – | – | – | – | –
14 | Cc1ccc2ccc3ccc(C)nc3c2n1 | > 100 µM | > 100 µM | > 100 µM | > 100 µM | > 100 µM | > 100 µM | > 100 µM | > 100 µM | > 100 µM | > 100 µM | – | – | – | – | – | – | – | – | –
15 | COc1c(O)c(O)c2c(c1O)C(=O)c1cc(C)cc(O)c1C2=O | > 100 µM | > 80 µM | > 100 µM | > 100 µM | > 69.7 µM | > 100 µM | > 86.5 µM | > 100 µM | 78.9 µM | > 100 µM | – | – | – | – | – | – | – | – | –
16 | Cc1c2cc[n+](C)cc2c(C)c2c1[nH]c1ccc(Cl)cc12 | 40.6 µM | 53.3 µM | 4.16 µM | 0.831 µM | 4.37 µM | 3.42 µM | 1.05 µM | 61.7 µM | 0.743 µM | 5.76 µM | – | – | – | – | – | – | – | – | –
17 | C[C@@H](CO)C1=CC(C#C[Si](C)(C)C)N(C(=O)Oc2ccccc2)c2ccccc21 (stereo partly drawn) | 35.6 µM | 56.3 µM | – | 39 µM | 28.1 µM | 30.9 µM | 36.1 µM | 42.1 µM | 47 µM | 31.8 µM | – | – | – | – | – | – | – | – | –
18 | CN=C(N)/N=C(\N)Nc1cc2ccccc2c2ccccc12 | 33.4 µM | 32.9 µM | 29.3 µM | 27.5 µM | 32.5 µM | 27.2 µM | 27.6 µM | 26.3 µM | 42.3 µM | 25.5 µM | – | – | – | – | – | – | – | – | –
19 | CCOC(=O)C(=O)Nc1c(CC)cccc1C(C)CC (stereo not drawn) | > 100 µM | > 100 µM | – | > 100 µM | > 100 µM | > 100 µM | > 100 µM | > 100 µM | – | – | – | – | – | – | – | – | – | – | –
20 | CSc1ccc(-c2cc(-c3nc4ccccc4[nH]3)nc(N)c2C#N)cc1 | 33.8 µM | > 100 µM | 59.6 µM | 61.6 µM | 53 µM | > 100 µM | 57.8 µM | > 100 µM | > 100 µM | > 100 µM | – | – | – | – | – | – | – | – | –
21 | c1ccc(CCN2CCOCC2)nc1 | > 100 µM | > 100 µM | > 100 µM | > 100 µM | > 100 µM | > 100 µM | – | > 100 µM | > 100 µM | > 100 µM | – | – | – | – | – | – | – | – | –

Reference: PubChem BioAssay (NCI)
